Values of other authors, collected in article PMC9500858 (International Journal of Molecular Sciences, 2022).

Assays:
mu opioid receptor = conditions: replacement of Tle with Ile; cited from earlier work
Excerpt: (§1) Tle and Ile are structural isomers belonging to the same class of leucines with the same atomic composition (C6H13NO2) but they have different chemical structures, including different bond coordination and stereochemistry (Figure 1). Thus, their presence in the peptide structure led to diverse results. In fact, incorporation of Ile into the 9th position of the peptide chain caused a decrease in the analgesic activity in vivo when compared with PK20, having a tert-leucine (Tle9) in the corresponding position. Nonetheless, [Ile^9]PK20 produced the maximal pain-relieving effect, although wi ...

[1] = test system: NTS1 neurotensin receptor; conditions: replacement of Tle with Ile; cited from earlier work
Excerpt: as §1

## HELM PEPTIDE1{[Cc1cc(O)cc(C)c1C[C@H](N)C(=O)[*:2]].[dK].F.F.K.K.P.F.I.L}$$$$V2.0 (N-terminus assumed; SMILES CC[C@H](C)[C@H](NC(=O)[C@H](Cc1ccccc1)NC(=O)[C@@H]1CCCN1C(=O)[C@H](CCCCN)NC(=O)[C@H](CCCCN)NC(=O)[C@H](Cc1ccccc1)NC(=O)[C@H](Cc1ccccc1)NC(=O)[C@@H](CCCCN)NC(=O)[C@@H](N)Cc1c(C)cc(O)cc1C)C(=O)N[C@@H](CC(C)C)C(=O)O) [[Ile^9]PK20, analogue of PK20 with Ile instead of Tle at position 9]
Mu opioid receptor
  binding at mu opioid receptor relative to PK20: reduced binding
[1]
  binding at NTS1 neurotensin receptor relative to PK20: reduced binding
